Source: patent publication US9856220B2 (AbbVie Deutschland GmbH & Co. KG, priority 2011, dated 2018)

Experiments:
rats [1] = conditions: cited from earlier work
rats [2] = conditions: cited from earlier work; remark: listed apart in the source
rats [3] = conditions: rat, in vivo; cited from earlier work
[4] = Determination of the microsomal half-life / microsomal clearance, rat liver microsomes; assay type: in vitro ADME; conditions: 0.5 μM test substance, 0.25 mg of microsomal protein/ml, pH 7.4, 37° C.
Protocol: (§1) b) Determination of the Microsomal Half-Life:
(§2) The metabolic stability of the compounds of the invention was determined in the following assay.
(§3) The test substances were incubated in a concentration of 0.5 μM as follows:
(§4) 0.5 μM test substance are preincubated together with liver microsomes from different species (from rat, human or other species) (0.25 mg of microsomal protein/ml) in 0.05 M potassium phosphate buffer of pH 7.4 in microtiter plates at 37° C. for 5 min. The reaction is started by adding NADPH (1 mg/mL). After 0, 5, 10, 15, 20 and 30 min, 50 μl aliquots are removed, and the reaction is immediately stopped and cooled with the same volume of acetonitrile. The samples are frozen until analyzed. The remaining concentration of undegraded test substance is determined by MSMS. The half-life (T½) is determined from the gradient of the signal of test substance/unit time plot, it being possible to calculate the half-life of the test substance, assuming first order kinetics, from the decrease in the concentration of the compound with time. The microsomal clearance (mCl) is calculated from mCl=ln 2/T½/(content of microsomal protein in mg/ml)×1000 [ml/min/mg]

[5] = Determination of the microsomal half-life / microsomal clearance, human liver microsomes; assay type: in vitro ADME; conditions: 0.5 μM test substance, 0.25 mg of microsomal protein/ml, pH 7.4, 37° C.
Protocol: as §1, §2, §3, §4

PDE10A = PDE10A (Homo sapiens (Human), UniProt Q9Y233); assay: Measurement of PDE activity (recombinant PDE, cAMP HTRF); assay type: biochemical; conditions: 20 nM cyclic nucleotide substrate, 60 minutes at 29 C
Method in brief: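 Recombinant human PDE10A in 20 mM Tris-HCl pH 7.5, 10 mM MgCl2, 0.1% BSA with 20 nM cyclic nucleotide substrate; reaction 60 min at 29 C after compound preincubation with enzyme. Residual cAMP detected by HTRF (cAMP-d2/anti-cAMP cryptate); IC50 from inhibitor concentration versus PDE activity.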

PDE10A, sequence (Q9Y233 whole entry, species assumed): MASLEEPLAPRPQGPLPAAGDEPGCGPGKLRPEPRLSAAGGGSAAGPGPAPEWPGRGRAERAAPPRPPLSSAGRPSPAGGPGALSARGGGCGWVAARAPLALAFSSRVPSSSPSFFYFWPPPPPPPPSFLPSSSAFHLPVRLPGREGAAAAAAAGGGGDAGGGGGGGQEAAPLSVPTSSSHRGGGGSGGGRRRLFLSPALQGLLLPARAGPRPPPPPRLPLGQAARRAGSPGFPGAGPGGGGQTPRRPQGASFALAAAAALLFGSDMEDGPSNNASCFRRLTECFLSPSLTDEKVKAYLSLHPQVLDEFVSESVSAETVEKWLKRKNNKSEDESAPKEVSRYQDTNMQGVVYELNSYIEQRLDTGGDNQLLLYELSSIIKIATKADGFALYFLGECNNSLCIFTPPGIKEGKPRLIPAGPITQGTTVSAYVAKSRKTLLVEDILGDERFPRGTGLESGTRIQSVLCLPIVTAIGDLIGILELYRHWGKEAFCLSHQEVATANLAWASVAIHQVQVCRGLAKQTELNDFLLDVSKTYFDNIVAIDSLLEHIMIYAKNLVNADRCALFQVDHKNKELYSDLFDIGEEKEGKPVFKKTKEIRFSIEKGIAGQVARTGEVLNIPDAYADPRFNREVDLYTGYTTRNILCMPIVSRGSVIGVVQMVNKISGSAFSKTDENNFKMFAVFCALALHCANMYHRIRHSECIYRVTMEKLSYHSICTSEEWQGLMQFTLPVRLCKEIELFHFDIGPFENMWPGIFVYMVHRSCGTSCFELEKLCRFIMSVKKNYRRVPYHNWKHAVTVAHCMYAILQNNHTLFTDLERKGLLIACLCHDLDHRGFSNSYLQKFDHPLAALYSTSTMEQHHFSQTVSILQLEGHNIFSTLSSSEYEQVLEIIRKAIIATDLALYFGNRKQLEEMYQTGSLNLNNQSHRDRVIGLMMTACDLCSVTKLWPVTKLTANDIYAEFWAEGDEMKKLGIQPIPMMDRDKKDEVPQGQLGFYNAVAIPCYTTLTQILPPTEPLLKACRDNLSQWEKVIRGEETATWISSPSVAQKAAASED

Row | Structure (SMILES) | Rat mCl [4] | Human mCl [5] | IC50 (PDE10A) [µM] | hyperactivity induced by PCP (rats [1]) | catalepsy on its own (rats [2]; compound alone) | cataleptic effect of the D2 receptor antagonist haloperidol (rats [2]; with haloperidol) | reduction of amphetamine-induced hyperactivity (rats [3])
1 | COc1ccc(Cc2nccc3cc(OC)c(OC)cc23)cc1OC [Papaverine, papaverine] | – | – | – | reduced hyperactivity | did not cause catalepsy on its own | potentiated the cataleptic effect | insignificant
2 | CCC(CC)n1cc(C(=O)NC2CCc3ccc(OC)cc32)c2cc(OC)c(OC)cc2c1=O (stereo not shown) [Example 256, 6,7-Dimethoxy-N-(6-methoxy-2,3-dihydro-1H-inden-1-yl)-1-oxo-2-(pentan-3-yl)-1,2-dihydroisoquinoline-4-carboxamide] | + (100-220 μl min^−1 mg^−1) | ∘ (>220 μl min^−1 mg^−1) | < 0.1 | – | – | – | –
3 | COc1cc2c(C(=O)NC3CCc4ccccc43)cn(C(C)C)c(=O)c2cc1OC (stereo not shown) [Example 198, 2-Isopropyl-6,7-dimethoxy-1-oxo-1,2-dihydro-isoquinoline-4-carboxylic acid indan-1-ylamide] | ++ (<100 μl min^−1 mg^−1) | + (100-220 μl min^−1 mg^−1) | 0.2 to 0.5 | – | – | – | –

Further lines, with some results ahead:

Row | Rat mCl [4] | Human mCl [5] | IC50 (PDE10A) [µM] | Structure (SMILES) | hyperactivity induced by PCP (rats [1]) | catalepsy on its own (rats [2]; compound alone) | cataleptic effect of the D2 receptor antagonist haloperidol (rats [2]; with haloperidol) | reduction of amphetamine-induced hyperactivity (rats [3])
4 | ++ (<100 μl min^−1 mg^−1) | ++ (<100 μl min^−1 mg^−1) | 0.2 to 0.5 | CCn1cc(C(=O)NC2CCc3sccc32)c2cc(OC)c(OC)cc2c1=O (single isomer, unassigned; (-)) [Example 205, (−)-2-Ethyl-6,7-dimethoxy-1-oxo-1,2-dihydro-isoquinoline-4-carboxylic acid (5,6-dihydro-4H-cyclopenta[b]thiophen-4-yl)-amide] | – | – | – | –
5 | ++ (<100 μl min^−1 mg^−1) | ++ (<100 μl min^−1 mg^−1) | 0.1 to 0.2 | CCC(CC)n1cc(C(=O)NC2CCc3ncccc32)c2cc(OC)c(OC)cc2c1=O (stereo not shown) [Example 186, 2-(1-Ethyl-propyl)-6,7-dimethoxy-1-oxo-1,2-dihydro-isoquinoline-4-carboxylic acid (6,7-dihydro-5H-[1]pyrindin-5-yl)-amide] | – | – | – | –
